Test results from the supplement of paper PMC10307832.

Experiments:
Assay in all cases: relative viability (nuclei count vs DMSO), 5 days (fraction); higher = more cells survive
COR-L23 = test system: COR-L23
Summary of the method: (§1)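 A single step with final 0.05% Triton X-100, 1% formaldehyde and 1 ug/ml Hoechst fixed the cells and stained nuclei 5 days after treatment. Lung cancer cell lines in 1536-well plates had been treated by pin tool the day after seeding with one drug alone or a fixed anchor-drug dose plus five library-drug doses (not always all listed) in √10 steps, and nuclei were counted on 4× images. Relative viability is the ratio of nuclei in treated wells to nuclei in vehicle wells, taken as the median of duplicate plates.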

ChaGo-K-1 = test system: ChaGo-K-1
Summary of the method: as §1

EMC-BAC-2 = test system: EMC-BAC-2
Summary of the method: as §1

HARA = test system: HARA
Summary of the method: as §1

HCC-15 = test system: HCC-15
Summary of the method: as §1

HCC-366 = test system: HCC-366
Summary of the method: as §1

HCC-78 = test system: HCC-78
Summary of the method: as §1

HOP-62 = test system: HOP-62
Summary of the method: as §1

LC-2-ad = test system: LC-2-ad
Summary of the method: as §1

NCI-H1395 = test system: NCI-H1395
Summary of the method: as §1

NCI-H1793 = test system: NCI-H1793
Summary of the method: as §1

NCI-H1944 = test system: NCI-H1944
Summary of the method: as §1

NCI-H1993 = test system: NCI-H1993
Summary of the method: as §1

NCI-H2023 = test system: NCI-H2023
Summary of the method: as §1

NCI-H2126 = test system: NCI-H2126
Summary of the method: as §1

NCI-H2228 = test system: NCI-H2228
Summary of the method: as §1

NCI-H23 = test system: NCI-H23
Summary of the method: as §1

NCI-H2405 = test system: NCI-H2405
Summary of the method: as §1

NCI-H358 = test system: NCI-H358
Summary of the method: as §1

NCI-H838 = test system: NCI-H838
Summary of the method: as §1

SK-LU-1 = test system: SK-LU-1
Summary of the method: as §1

For `O=c1cc(N2CCOCC2)oc2c(-c3cccc4c3sc3ccccc34)cccc12` + CC(=O)Nc1cccc(-n2c(=O)n(C3CC3)c(=O)c3c(Nc4ccc(I)cc4F)n(C)c(=O)c(C)c32)c1 [Trametinib] (partner 0.02 µM), the relative viability (COR-L23; first compound 0.01 µM) was 0.617, the relative viability (COR-L23; first compound 0.03162 µM) was 0.614 and the relative viability (COR-L23; first compound 0.1 µM) was 0.552. For the same molecule, the relative viability (COR-L23; first compound 0.3162 µM) was 0.633, the relative viability (COR-L23; first compound 1 µM) was 0.655 and the relative viability (ChaGo-K-1; first compound 0.01 µM) was 0.845. For the same molecule, the relative viability (ChaGo-K-1; first compound 0.03162 µM) was 0.958, the relative viability (ChaGo-K-1; first compound 0.1 µM) was 0.966 and the relative viability (ChaGo-K-1; first compound 0.3162 µM) was 0.893. It also gave a relative viability (ChaGo-K-1; first compound 1 µM) of 0.882, a relative viability (EMC-BAC-2; first compound 0.01 µM) of 0.976 and a relative viability (EMC-BAC-2; first compound 0.03162 µM) of 0.93. The relative viability (EMC-BAC-2; first compound 0.1 µM) was 0.931, the relative viability (EMC-BAC-2; first compound 0.3162 µM) was 0.774 and the relative viability (EMC-BAC-2; first compound 1 µM) was 0.865. The relative viability (HARA; first compound 0.01 µM) was 0.377, the relative viability (HARA; first compound 0.03162 µM) was 0.828 and the relative viability (HARA; first compound 0.1 µM) was 0.688. The relative viability (HARA; first compound 0.3162 µM) was 0.621, the relative viability (HARA; first compound 1 µM) was 0.649 and the relative viability (HCC-15; first compound 0.01 µM) was 0.384. It also gave a relative viability (HCC-15; first compound 0.03162 µM) of 0.388, a relative viability (HCC-15; first compound 0.1 µM) of 0.288 and a relative viability (HCC-15; first compound 0.3162 µM) of 0.368. The relative viability (HCC-15; first compound 1 µM) was 0.364, the relative viability (HCC-366; first compound 0.01 µM) was 0.411 and the relative viability (HCC-366; first compound 0.03162 µM) was 0.355. It also gave a relative viability (HCC-366; first compound 0.1 µM) of 0.36, a relative viability (HCC-366; first compound 0.3162 µM) of 0.333 and a relative viability (HCC-366; first compound 1 µM) of 0.322. It also gave a relative viability (HCC-78; first compound 0.01 µM) of 0.801, a relative viability (HCC-78; first compound 0.03162 µM) of 0.699 and a relative viability (HCC-78; first compound 0.1 µM) of 0.899. The relative viability (HCC-78; first compound 0.3162 µM) was 0.806, the relative viability (HCC-78; first compound 1 µM) was 0.651 and the relative viability (HOP-62; first compound 0.01 µM) was 0.379. For the same molecule, the relative viability (HOP-62; first compound 0.03162 µM) was 0.384, the relative viability (HOP-62; first compound 0.1 µM) was 0.358 and the relative viability (HOP-62; first compound 0.3162 µM) was 0.385. It also gave a relative viability (HOP-62; first compound 1 µM) of 0.373, a relative viability (LC-2-ad; first compound 0.01 µM) of 0.982 and a relative viability (LC-2-ad; first compound 0.03162 µM) of 0.877. The relative viability (LC-2-ad; first compound 0.1 µM) was 0.965, the relative viability (LC-2-ad; first compound 0.3162 µM) was 0.899 and the relative viability (LC-2-ad; first compound 1 µM) was 0.918. It also gave a relative viability (NCI-H1395; first compound 0.03162 µM) of 1.1, a relative viability (NCI-H1395; first compound 0.1 µM) of 1.02 and a relative viability (NCI-H1395; first compound 0.3162 µM) of 1.07. The relative viability (NCI-H1395; first compound 1 µM) was 1.01, the relative viability (NCI-H1793; first compound 0.01 µM) was 0.372 and the relative viability (NCI-H1793; first compound 0.03162 µM) was 0.411. It also gave a relative viability (NCI-H1793; first compound 0.1 µM) of 0.504, a relative viability (NCI-H1793; first compound 0.3162 µM) of 0.406 and a relative viability (NCI-H1793; first compound 1 µM) of 0.38. The relative viability (NCI-H1944; first compound 0.01 µM) was 0.448, the relative viability (NCI-H1944; first compound 0.03162 µM) was 0.403 and the relative viability (NCI-H1944; first compound 0.1 µM) was 0.396. For the same molecule, the relative viability (NCI-H1944; first compound 0.3162 µM) was 0.411, the relative viability (NCI-H1944; first compound 1 µM) was 0.363 and the relative viability (NCI-H1993; first compound 0.01 µM) was 0.507. It also gave a relative viability (NCI-H1993; first compound 0.03162 µM) of 0.601, a relative viability (NCI-H1993; first compound 0.1 µM) of 0.507 and a relative viability (NCI-H1993; first compound 0.3162 µM) of 0.407. For the same molecule, the relative viability (NCI-H1993; first compound 1 µM) was 0.516, the relative viability (NCI-H2023; first compound 0.01 µM) was 0.676 and the relative viability (NCI-H2023; first compound 0.03162 µM) was 0.574. For the same molecule, the relative viability (NCI-H2023; first compound 0.1 µM) was 0.624, the relative viability (NCI-H2023; first compound 0.3162 µM) was 0.601 and the relative viability (NCI-H2023; first compound 1 µM) was 0.396. It also gave a relative viability (NCI-H2126; first compound 0.01 µM) of 0.543, a relative viability (NCI-H2126; first compound 0.03162 µM) of 0.52 and a relative viability (NCI-H2126; first compound 0.1 µM) of 0.54. For the same molecule, the relative viability (NCI-H2126; first compound 0.3162 µM) was 0.567, the relative viability (NCI-H2126; first compound 1 µM) was 0.569 and the relative viability (NCI-H2228; first compound 0.01 µM) was 0.723. The relative viability (NCI-H2228; first compound 0.03162 µM) was 0.424, the relative viability (NCI-H2228; first compound 0.1 µM) was 0.43 and the relative viability (NCI-H2228; first compound 0.3162 µM) was 0.557. The relative viability (NCI-H2228; first compound 1 µM) was 0.534, the relative viability (NCI-H23; first compound 0.01 µM) was 0.351 and the relative viability (NCI-H23; first compound 0.03162 µM) was 0.375. It also gave a relative viability (NCI-H23; first compound 0.3162 µM) of 0.359, a relative viability (NCI-H23; first compound 1 µM) of 0.347 and a relative viability (NCI-H2405; first compound 0.01 µM) of 0.751. The relative viability (NCI-H2405; first compound 0.03162 µM) was 0.664, the relative viability (NCI-H2405; first compound 0.1 µM) was 0.631 and the relative viability (NCI-H2405; first compound 0.3162 µM) was 0.686. The relative viability (NCI-H2405; first compound 1 µM) was 0.665, the relative viability (NCI-H358; first compound 0.01 µM) was 0.133 and the relative viability (NCI-H358; first compound 0.03162 µM) was 0.14. It also gave a relative viability (NCI-H358; first compound 0.1 µM) of 0.115, a relative viability (NCI-H358; first compound 0.3162 µM) of 0.128 and a relative viability (NCI-H358; first compound 1 µM) of 0.165. It also gave a relative viability (NCI-H838; first compound 0.01 µM) of 0.594, a relative viability (NCI-H838; first compound 0.03162 µM) of 0.557 and a relative viability (NCI-H838; first compound 0.1 µM) of 0.481. For the same molecule, the relative viability (NCI-H838; first compound 0.3162 µM) was 0.469, the relative viability (NCI-H838; first compound 1 µM) was 0.442 and the relative viability (SK-LU-1; first compound 0.01 µM) was 0.521. For the same molecule, the relative viability (SK-LU-1; first compound 0.03162 µM) was 0.453, the relative viability (SK-LU-1; first compound 0.1 µM) was 0.505 and the relative viability (SK-LU-1; first compound 0.3162 µM) was 0.443. It also gave a relative viability (SK-LU-1; first compound 1 µM) of 0.5.
